{
  "source": "ChEMBL document CHEMBL4004849",
  "about": "“Tetrazolylmethyl quinolines: Design, docking studies, synthesis, anticancer and antifungal analyses” (2017)",
  "type_in_all_cases": "functional",
  "key": {"MDA-MB-435": {"tested_on": "MDA-MB-435", "assay": "Growth inhibition of human MDA-MB-435 cells at 10^-5 M incubated for 48 hrs by sulforhodamine B assay relative to control"}, "HCC 2998": {"tested_on": "HCC 2998", "assay": "Growth inhibition of human HCC2998 cells at 10^-5 M incubated for 48 hrs by sulforhodamine B assay relative to control"}, "MDA-MB-231": {"tested_on": "MDA-MB-231", "assay": "Growth inhibition of human MDA-MB-231/ATCC cells at 10^-5 M incubated for 48 hrs by sulforhodamine B assay relative to control"}, "Candida albicans": {"tested_on": "Candida albicans", "assay": "Antifungal activity against Candida albicans at 100 ug/ml by disc diffusion method", "details": "read-out: IZ"}, "HCT-116": {"tested_on": "HCT-116", "assay": "Growth inhibition of human HCT116 cells at 10^-5 M incubated for 48 hrs by sulforhodamine B assay relative to control"}, "Aspergillus fumigatus [1]": {"tested_on": "Aspergillus fumigatus", "assay": "Antifungal activity against Aspergillus fumigatus at 100 ug/ml by disc diffusion method", "details": "read-out: IZ"}, "MOLT-4": {"tested_on": "MOLT-4", "assay": "Growth inhibition of human MOLT4 cells at 10^-5 M incubated for 48 hrs by sulforhodamine B assay relative to control"}, "SK-MEL-5": {"tested_on": "SK-MEL-5", "assay": "Growth inhibition of human SK-MEL-5 cells at 10^-5 M incubated for 48 hrs by sulforhodamine B assay relative to control"}, "KM12": {"tested_on": "KM12", "assay": "Growth inhibition of human KM12 cells at 10^-5 M incubated for 48 hrs by sulforhodamine B assay relative to control"}, "Hs-578T": {"tested_on": "Hs-578T", "assay": "Growth inhibition of human Hs 578T cells at 10^-5 M incubated for 48 hrs by sulforhodamine B assay relative to control"}, "SF-268": {"tested_on": "SF-268", "assay": "Growth inhibition of human SF268 cells at 10^-5 M incubated for 48 hrs by sulforhodamine B assay relative to control"}, "A549": {"tested_on": "A549", "assay": "Growth inhibition of human A549/ATCC cells at 10^-5 M incubated for 48 hrs by sulforhodamine B assay relative to control"}, "SR": {"tested_on": "SR", "assay": "Growth inhibition of human SR cells at 10^-5 M incubated for 48 hrs by sulforhodamine B assay relative to control"}, "M14": {"tested_on": "M14", "assay": "Growth inhibition of human M14 cells at 10^-5 M incubated for 48 hrs by sulforhodamine B assay relative to control"}, "SK-OV-3": {"tested_on": "SK-OV-3", "assay": "Growth inhibition of human SKOV3 cells at 10^-5 M incubated for 48 hrs by sulforhodamine B assay relative to control"}, "COLO 205": {"tested_on": "COLO 205", "assay": "Growth inhibition of human COLO205 cells at 10^-5 M incubated for 48 hrs by sulforhodamine B assay relative to control"}, "NCI-H522": {"tested_on": "NCI-H522", "assay": "Growth inhibition of human NCI-H522 cells at 10^-5 M incubated for 48 hrs by sulforhodamine B assay relative to control"}, "Aspergillus fumigatus [2]": {"tested_on": "Aspergillus fumigatus", "assay": "Antifungal activity against Aspergillus fumigatus after 24 hrs by serial dilution method"}, "Malme-3M": {"tested_on": "Malme-3M", "assay": "Growth inhibition of human MALME-3M cells at 10^-5 M incubated for 48 hrs by sulforhodamine B assay relative to control"}, "SK-MEL-28": {"tested_on": "SK-MEL-28", "assay": "Growth inhibition of human SK-MEL-28 cells at 10^-5 M incubated for 48 hrs by sulforhodamine B assay relative to control"}, "NCI-H226": {"tested_on": "NCI-H226", "assay": "Growth inhibition of human NCI-H226 cells at 10^-5 M incubated for 48 hrs by sulforhodamine B assay relative to control"}, "NCI-H460": {"tested_on": "NCI-H460", "assay": "Growth inhibition of human NCI-H460 cells at 10^-5 M incubated for 48 hrs by sulforhodamine B assay relative to control"}, "UACC-62": {"tested_on": "UACC-62", "assay": "Growth inhibition of human UACC62 cells at 10^-5 M incubated for 48 hrs by sulforhodamine B assay relative to control"}, "K562": {"tested_on": "K562", "assay": "Growth inhibition of human K562 cells at 10^-5 M incubated for 48 hrs by sulforhodamine B assay relative to control"}, "SNB-19": {"tested_on": "SNB-19", "assay": "Growth inhibition of human SNB19 cells at 10^-5 M incubated for 48 hrs by sulforhodamine B assay relative to control"}, "ACHN": {"tested_on": "ACHN", "assay": "Growth inhibition of human ACHN cells at 10^-5 M incubated for 48 hrs by sulforhodamine B assay relative to control"}, "BT-549": {"tested_on": "BT-549", "assay": "Growth inhibition of human BT549 cells at 10^-5 M incubated for 48 hrs by sulforhodamine B assay relative to control"}, "U-251": {"tested_on": "U-251", "assay": "Growth inhibition of human U251 cells at 10^-5 M incubated for 48 hrs by sulforhodamine B assay relative to control"}, "IGROV-1": {"tested_on": "IGROV-1", "assay": "Growth inhibition of human IGROV1 cells at 10^-5 M incubated for 48 hrs by sulforhodamine B assay relative to control"}, "MCF7": {"tested_on": "MCF7", "assay": "Growth inhibition of human MCF7 cells at 10^-5 M incubated for 48 hrs by sulforhodamine B assay relative to control"}, "HT-29": {"tested_on": "HT-29", "assay": "Growth inhibition of human HT-29 cells at 10^-5 M incubated for 48 hrs by sulforhodamine B assay relative to control"}, "SF-295": {"tested_on": "SF-295", "assay": "Growth inhibition of human SF295 cells at 10^-5 M incubated for 48 hrs by sulforhodamine B assay relative to control"}, "SF-539": {"tested_on": "SF-539", "assay": "Growth inhibition of human SF539 cells at 10^-5 M incubated for 48 hrs by sulforhodamine B assay relative to control"}, "UACC-257": {"tested_on": "UACC-257", "assay": "Growth inhibition of human UACC257 cells at 10^-5 M incubated for 48 hrs by sulforhodamine B assay relative to control"}, "OVCAR-4": {"tested_on": "OVCAR-4", "assay": "Growth inhibition of human OVCAR4 cells at 10^-5 M incubated for 48 hrs by sulforhodamine B assay relative to control"}, "OVCAR-5": {"tested_on": "OVCAR-5", "assay": "Growth inhibition of human OVCAR5 cells at 10^-5 M incubated for 48 hrs by sulforhodamine B assay relative to control"}, "MDA-MB-468": {"tested_on": "MDA-MB-468", "assay": "Growth inhibition of human MDA-MB-468 cells at 10^-5 M incubated for 48 hrs by sulforhodamine B assay relative to control"}, "UO-31": {"tested_on": "UO-31", "assay": "Growth inhibition of human UO31 cells at 10^-5 M incubated for 48 hrs by sulforhodamine B assay relative to control"}, "OVCAR-3": {"tested_on": "OVCAR-3", "assay": "Growth inhibition of human OVCAR3 cells at 10^-5 M incubated for 48 hrs by sulforhodamine B assay relative to control"}, "NCI-H23": {"tested_on": "NCI-H23", "assay": "Growth inhibition of human NCI-H23 cells at 10^-5 M incubated for 48 hrs by sulforhodamine B assay relative to control"}, "RXF 393": {"tested_on": "RXF 393", "assay": "Growth inhibition of human RXF393 cells at 10^-5 M incubated for 48 hrs by sulforhodamine B assay relative to control"}, "OVCAR-8": {"tested_on": "OVCAR-8", "assay": "Growth inhibition of human OVCAR8 cells at 10^-5 M incubated for 48 hrs by sulforhodamine B assay relative to control"}, "CAKI-1": {"tested_on": "CAKI-1", "assay": "Growth inhibition of human Caki1 cells at 10^-5 M incubated for 48 hrs by sulforhodamine B assay relative to control"}, "SW-620": {"tested_on": "SW-620", "assay": "Growth inhibition of human SW620 cells at 10^-5 M incubated for 48 hrs by sulforhodamine B assay relative to control"}},
  "note": "The source made the active and inactive calls. The calls are words filed in the database; no cut-off is given here.",
  "data": [
    {"smiles": "Clc1nc2ccc(Br)cc2cc1Cn1nnnc1Cc1ccccc1", "values": [
      {"measurement": "growth inhibition (GI)", "setting": "MDA-MB-435", "value": "Active"},
      {"measurement": "growth inhibition (GI)", "setting": "HCC 2998", "value": "Active"},
      {"measurement": "growth inhibition (GI)", "setting": "MDA-MB-231", "value": "Active"},
      {"measurement": "zone of inhibition at 100 µg/mL", "setting": "Candida albicans", "value": 16, "unit": "mm"},
      {"measurement": "growth inhibition (GI)", "setting": "HCT-116", "value": "Active"},
      {"measurement": "zone of inhibition at 100 µg/mL", "setting": "Aspergillus fumigatus [1]", "value": 13, "unit": "mm"},
      {"measurement": "growth inhibition (GI)", "setting": "MOLT-4", "value": "Active"},
      {"measurement": "growth inhibition (GI)", "setting": "SK-MEL-5", "value": "Active"},
      {"measurement": "growth inhibition (GI)", "setting": "KM12", "value": "Active"},
      {"measurement": "growth inhibition (GI)", "setting": "Hs-578T", "value": "Active"},
      {"measurement": "growth inhibition (GI)", "setting": "SF-268", "value": "Active"},
      {"measurement": "growth inhibition (GI)", "setting": "A549", "value": "Active"},
      {"measurement": "growth inhibition (GI)", "setting": "SR", "value": "Active"},
      {"measurement": "growth inhibition (GI)", "setting": "M14", "value": "Active"},
      {"measurement": "growth inhibition (GI)", "setting": "SK-OV-3", "value": "Active"},
      {"measurement": "growth inhibition (GI)", "setting": "COLO 205", "value": "Active"},
      {"measurement": "growth inhibition (GI)", "setting": "NCI-H522", "value": "Active"},
      {"measurement": "MIC", "setting": "Aspergillus fumigatus [2]", "value": 10, "unit": "µg/mL"},
      {"measurement": "growth inhibition (GI)", "setting": "Malme-3M", "value": "Active"},
      {"measurement": "growth inhibition (GI)", "setting": "SK-MEL-28", "value": "Active"},
      {"measurement": "growth inhibition (GI)", "setting": "NCI-H226", "value": "Active"},
      {"measurement": "growth inhibition (GI)", "setting": "NCI-H460", "value": "Active"},
      {"measurement": "growth inhibition (GI)", "setting": "UACC-62", "value": "Active"},
      {"measurement": "growth inhibition (GI)", "setting": "K562", "value": "Active"},
      {"measurement": "growth inhibition (GI)", "setting": "SNB-19", "value": "Active"},
      {"measurement": "growth inhibition (GI)", "setting": "ACHN", "value": "Active"},
      {"measurement": "growth inhibition (GI)", "setting": "BT-549", "value": "Active"},
      {"measurement": "growth inhibition (GI)", "setting": "U-251", "value": "Active"},
      {"measurement": "growth inhibition (GI)", "setting": "IGROV-1", "value": "Active"},
      {"measurement": "growth inhibition (GI)", "setting": "MCF7", "value": "Active"},
      {"measurement": "growth inhibition (GI)", "setting": "HT-29", "value": "Active"},
      {"measurement": "growth inhibition (GI)", "setting": "SF-295", "value": "Active"},
      {"measurement": "growth inhibition (GI)", "setting": "SF-539", "value": "Active"},
      {"measurement": "growth inhibition (GI)", "setting": "UACC-257", "value": "Active"},
      {"measurement": "growth inhibition (GI)", "setting": "OVCAR-4", "value": "Active"},
      {"measurement": "growth inhibition (GI)", "setting": "OVCAR-5", "value": "Active"},
      {"measurement": "growth inhibition (GI)", "setting": "MDA-MB-468", "value": "Active"},
      {"measurement": "growth inhibition (GI)", "setting": "UO-31", "value": "Active"},
      {"measurement": "growth inhibition (GI)", "setting": "OVCAR-3", "value": "Active"},
      {"measurement": "growth inhibition (GI)", "setting": "NCI-H23", "value": "Active"},
      {"measurement": "growth inhibition (GI)", "setting": "RXF 393", "value": "Active"},
      {"measurement": "growth inhibition (GI)", "setting": "OVCAR-8", "value": "Active"},
      {"measurement": "growth inhibition (GI)", "setting": "CAKI-1", "value": "Active"},
      {"measurement": "growth inhibition (GI)", "setting": "SW-620", "value": "Active"}
    ]}
  ]
}
